According to paper PMC5427923, “A novel CCR2 antagonist inhibits atherogenesis in apoE deficient mice by achieving high receptor occupancy” (Scientific Reports, 2017):
“Also recorded” adds a separate entry of the source. Like-named read-outs stand apart in the source and are kept apart here.

Key:
apoE−/− mice = test: Body weight, cholesterol, liver toxicity markers and plasma cytokines in treated apoE−/− mice; format: in vivo, mouse
Experimental: (§1) To determine the effect of the CCR2 antagonist on atherosclerotic lesion development, mice were fed a Western type diet, containing 0.25% cholesterol and 15% cocoabutter (SDS, Sussex, UK) throughout the experiment starting two week before surgery. Carotid artery plaque formation was induced by perivascular collar placement as described previously[46] and from the time of surgery, the mice received daily intraperitoneal injections containing 15a (5 mg/kg/day) or vehicle control (n = 9–10 per group). During the experiment, total body weight and weight gain were measured. Serum total cholesterol levels were determined using an enzymatic colorimetric assay according to manufacturer’s protocol (Roche Diagnostics). Precipath (standardized serum; Boehringer Mannheim, Germany) was used as an internal standard. Plasma cytokine levels were measured by ELISA according to manufacturer’s protocol (BD Biosciences). Blood was collected weekly via tail cut. Total cell count and cellular differentiation patterns in blood were analyzed using an automated XT-2000iV veterinary hematology analyzer (Sysmex Europe GMBH, Norderstedt, Germany). After erythrocyte lysis, blood leukocyte suspensions were stained for surface markers, after which their expression was determined by FACS analysis (FACS Canto, BD Biosciences). After 4 weeks of lesion development, the animals were anaesthetized and blood was collected. After in situ perfusion through the left cardiac chamber, the carotid arteries and hearts were harvested.
Macrophage content of the lesions in carotid arteries and aortic roots was stained using a rat monoclonal MOMA2 antibody (1:1000, Serotec, Kidlington, Oxford, UK). Macrophage positive areas were analyzed using computer-assisted colour-gated analysis, and related to the total intimal surface area (Leica QWin). Liver cryosections of 10 µm thick were prepared and subsequently stained with hematoxylin-eosin to analyze liver morphology, which was assessed using a Leica DMRE microscope (Leica Ltd., Cambridge, England).
Total RNA was extracted from homogenized liver tissue with the guanidium thiocyanate-phenol-bromochloropropane extraction method. RNA concentration, purity and integrity were examined by nanodrop (Nanodrop® Technologies). RNA was reverse transcribed by M-MuLV reverse transcriptase (RevertAid, MBI Fermentas, Landsmeer, The Netherlands) and used for quantitative analysis of the mouse genes ALT, AST, apoH and GC with an ABI PRISM 7700 Taqman apparatus (Applied Biosystems). For qPCR primer pairs refer to Supplementary Table S1.

[1] = test system: circulating CCR2+ monocytes; test: Circulating blood cells (flow cytometry, hematology analyzer) in 15a treated apoE−/− mice; format: in vivo, mouse
Experimental: as §1

murine CCR2 (mCCR2) = biological target: T1, murine CCR2 (mCCR2) (Mus musculus, UniProt P51683); test: [3H]INCB3344 association, dissociation and competition association (kinetic) assays on CHO-mCCR2 membranes; format: binding
T1 construct: expressed in transfected cells; host or cells: CHO cells, transient transfection (PEI) with pcDNA3.1+ plasmid; membrane preparation
T1 sequence (P51683 whole entry): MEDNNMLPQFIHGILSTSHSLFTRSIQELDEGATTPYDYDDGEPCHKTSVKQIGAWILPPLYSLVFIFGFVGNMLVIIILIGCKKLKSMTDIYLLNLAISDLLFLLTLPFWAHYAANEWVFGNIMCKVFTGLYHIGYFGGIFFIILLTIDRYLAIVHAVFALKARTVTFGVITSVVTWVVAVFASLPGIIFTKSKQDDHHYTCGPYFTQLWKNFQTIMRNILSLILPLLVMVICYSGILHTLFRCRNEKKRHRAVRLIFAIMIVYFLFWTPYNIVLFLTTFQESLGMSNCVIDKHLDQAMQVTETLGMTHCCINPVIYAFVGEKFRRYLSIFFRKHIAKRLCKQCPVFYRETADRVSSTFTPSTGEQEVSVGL
Experimental: Radioligand binding assays were performed in a 100 µL reaction volume containing 50 mM Tris-HCl buffer (pH 7.4), 5 mM MgCl2, 0.1% 3-[(3-cholamidopropyl)-dimethylammonio]-1-propanesulfonic acid (CHAPS), 5 nM [^3H]INCB3344 and 50 to 60 µg of membrane protein at 25 °C. Non-specific binding was determined with 10 μM of the cold ligand INCB3344. Displacement assays were carried out using 9 concentrations of competing ligand, ranging from 0.1 nM to 100 μM, for 120 min of incubation. The kinetic parameters of 15a were also determined at 25 °C using a competition association assay as previously described, [27]. For association and competition association experiments, CHO-mCCR2 membranes were added to the reaction volume at different time points, in the absence or presence of 30 nM of competing ligand. For dissociation experiments, CHO-mCCR2 membranes were first incubated with 5 nM [^3H]INCB3344 for 60 min. Dissociation was initiated by addition of 10 µM of INCB3344 at different time points. For all experiments, incubation was terminated by dilution with ice-cold 50 mM Tris-HCl buffer supplemented with 5 mM MgCl2 and 0.05% CHAPS. Separation of bound from free radioligand was performed by rapid filtration over a 96-well GF/B filter plate using a Perkin Elmer Filtermate-harvester (Perkin Elmer, Groningen, the Netherlands) in the case of displacement assays; or over GF/B filters using a Brandel harvester 24 (Brandel, Gaithersburg, MD, USA) for kinetic assays. Filter-bound radioactivity was determined by scintillation spectrometry after addition of Microscint scintillation cocktail (Perkin-Elmer, Groningen, the Netherlands). The P-E 2450 Microbeta2 plate counter (Perkin Elmer, Groningen, The Netherlands) was used for displacement assays, and the TRI Carb 2900 TR counter (Perkin Elmer, Groningen, The Netherlands) for kinetic assays.
All radioligand binding assays were analyzed using Prism 6.0 (GraphPad software, San Diego, CA, USA). All data shown represent means ± SEM of at least three independent experiments performed in duplicate. Ki values were calculated from IC50 values obtained by non-linear regression analysis of the displacement assays and by using the Cheng-Prusoff equation[47]. Dissociation rate constants k off were determined by fitting the dissociation data using an exponential decay model. Association rate constants k on were obtained by converting the apparent association rate constants k obs according to the equation k on = (k obs − k off)/[L], in which L is the radioligand concentration used for the experiments, k obs is the constant rate determined using exponential association analysis and k off represents the mean k off value obtained independently in the dissociation experiments. The kinetic profile of compound 15a was determined by calculation of its kinetic rate index (KRI) value. The KRI values were calculated according to the equation KRI = Bt1/Bt2, in which Bt represents the specific radioligand binding measured at t1 = 15 min and t2 = 210 min. In addition, the association and dissociation rates of 15a were obtained by nonlinear regression analysis of the competition association data using the equations described by Motulsky and Mahan[27]. […] In addition, the RT was calculated by obtaining the reciprocal of the k off. Data obtained from in vivo experiments are expressed as mean ± SEM. […] Non-Gaussian distributed data were analyzed using a two-tailed Mann-Whitney U test. […]

[2] = 4 weeks of treatment, 18 h after last injection

CC(C)[C@]1(C(=O)N2CCc3ccc(C(F)(F)F)cc3C2)CC[C@@H](N[C@@H]2CCc3cc(Br)ccc32)C1 [15a, ((1S,3R)-3-(((R)-5-bromo-2,3-dihydro-1H-inden-1-yl)amino)-1-isopropylcyclopentyl)(7-(trifluoromethyl)-3,4-dihydroisoquinolin-2(1H)-yl)methanone]
body weight (apoE−/− mice; 5 mg/kg/day i.p., four weeks): not significantly affected | body weight gain (apoE−/− mice; 5 mg/kg/day i.p., four weeks): not affected | plasma total cholesterol levels (apoE−/− mice; 5 mg/kg/day i.p., four weeks): not significantly affected | liver mRNA levels of AST (apoE−/− mice; P = 0.02): somewhat decreased | liver mRNA expression of the toxicity markers ALT, apoH and GC (apoE−/− mice; mouse, in vivo): did not affect | plasma CCL2 levels (apoE−/− mice; mouse, in vivo): increased | plasma IL-6 levels (apoE−/− mice; mouse, in vivo): remained unaffected | liver morphology (apoE−/− mice; versus controls): similar | number of circulating CCR2+ monocytes ([1]; 5 mg/kg/day i.p., 4 weeks, 18 hour after the last injection, controls 14.9 ± 3.2): 4.5 ± 1.0 *10^3 cells/mL | percentage of circulating CCR2+ monocytes (CD11b+Ly6Glow cells) ([1]; 5 mg/kg/day i.p., two weeks of treatment, 2 hours after injection, controls 8.7 ± 1.2%): 1.8 ± 0.2% | increase in the amount of CD11b+Ly6ClowCX3CR1+ monocytes [1, 2]: 1.5 fold | ratio of patrolling CD11b+Ly6ClowCX3CR1+ versus inflammatory CD11b+Ly6ChighCCR2+ monocytes in blood [1, 2]: increased | reduction in circulating CCR2+ monocyte numbers ([1]; at 18 hours after treatment): > 60% | circulating total white blood cell (WBCs) count ([1]; at the time of sacrifice): No differences | total lymphocyte numbers ([1]; at the time of sacrifice): No differences; also recorded: remained unaffected | total neutrophil numbers ([1]; at the time of sacrifice): No differences; also recorded: remained unaffected | total number of (circulating) monocytes ([1]; at the time of sacrifice): significantly reduced | bone marrow monocyte subpopulations ([1]; data not shown): did not observe any effects | number of neutrophils, CD19+ B cells, CD4+ or CD8+ T cells in blood or spleen ([1]; flow cytometry, 18 hour after the last injection, data not shown): did not affect | splenic or circulating Tregs ([1]; flow cytometry, data not shown): nor did we detect any effects | percentage of circulating CCR5+ monocytes ([1]; treated and untreated mice): did not observe any change | kon (murine CCR2 (mCCR2); mCCR2, 25 °C): 117000 M⁻¹ s⁻¹ | KRI (kinetic rate index) (murine CCR2 (mCCR2); mCCR2, 25 °C, KRI = Bt1/Bt2, t1 = 15 min, t2 = 210 min): 1.6 | Kd (murine CCR2 (mCCR2); mCCR2, 25 °C, read-out: K D (kinetic, k off/k on)): 7.4 ± 1.5 nM | koff (murine CCR2 (mCCR2); mCCR2, 25 °C, read-out: k off (converted)): 0.00085 s⁻¹ | koff (murine CCR2 (mCCR2); mCCR2, corresponding to 0.051 min^−1, read-out: k off (as set for the simulations) (converted)): 0.00085 s⁻¹
